The numbers were not newly measured in patent US20220218877A1, “C[…] COMPOSITIONS” ([…], priority 2019, published 2022), which cites them from elsewhere.

The conditions of this series: depending upon the conditions.

With `CCCCCc1cc(O)c2c(c1)OC(C)(C)[C@@H]1CCC(C)=C[C@@H]21` [THC, tetrahydrocannabinol], the “Solubility in aqueous solutions” value is “a few micrograms/ml or less”.

On to `CCCCCc1cc(O)c2c(c1)OC(C)(C)c1ccc(C)cc1-2` [cannabinol], for which the “Solubility in aqueous solutions” value is recorded as “a few micrograms/ml or less”.

For cannabidiol [CBD], the “Solubility in aqueous solutions” value is listed as “a few micrograms/ml or less”.
